Patent US20260263638A1, “COMPOSITIONS AND METHODS TO IMPROVE RNA PROPERTIES USING BASE, PHOSPHODIESTER LINKAGE, SUGAR BACKBONE, AND CAP MODIFICATIONS” (The Broad Institute, Inc., priority 2023, published 2026)
“Also recorded” adds a separate entry of the source. Strand notation (5' to 3'): a small letter for the sugar, then the base; units joined by * are phosphorothioate-linked, units joined directly phosphodiester-linked; [ ] holds rarer units or linkages, { } end groups; capitals alone tell only the bases. [5OctU] = 5-octadiynyl-2'-deoxyuridine, alkyne click handle; d = 2'-deoxy (DNA); {3P} = phosphate; r = 2'-OH (RNA); {P} = phosphate

Tests used:
[1] = test system: rabbit reticulocyte lysate (RRL) in vitro translation system; test: In vitro translation assay in rabbit reticulocyte lysate with or without 4EGI-1; type: biochemical
Experimental: Firefly luciferase reporter mRNA with one cap and Nanoluc mRNA with two caps were synthesized according to protocol mentioned above. The in vitro translation was conducted using Rabbit Reticulocyte Lysate (Nuclease-treated) [Promega, L4960] according to manufacturer's protocol with some modifications. 30% or 40% of rabbit reticulocyte lysate, 4% of SUPERaseIn RNase Inhibitor, amino acid mixture and indicated mRNA were added to the reaction with 4EGI-1 inhibitor (600 μM) or DMSO as control in 50 μL reaction. The reactions were incubated at 30° C. for an hour. Then, […] of the reaction mixture was diluted by 10-fold with PBS. The fluorescence of firefly luciferase was measured with Dual-Glo Luciferase Assay System [Promega, E2920] and the fluorescence of Nanoluc was measured with Nano-Glo Luciferase Assay System [Promega, N1110] according to manufacturer's protocol.

HeLa cells [2] = test: NLuc bioluminometry of circRNA/QRNA (Fluc transfection control); type: cell-based
Experimental: (§1) Synthetic linear mRNA encoding NanoLuciferase (NLuc) was prepared from DNA template by IVT with 100% m1ψ substitution. The triphosphorylated mRNA after IVT was then treated with Calf Intestinal Alkaline Phosphatase (CIAP) to yield 5′/3′-hydroxyl mRNA. A chemically synthesized oligonucleotide with a branched m7G cap and 5′/3′-phosphates was then ligated to the 5′/3′-hydroxyl mRNA by T4 RNA ligase, which ligates the 5′-phosphate on the oligo and 3′-hydroxyl of the mRNA. The ligation product was then further treated with RtcB ligase, which ligates the 5′-hydroxyl and 3′-phosphate ends to enable intramolecular circularization. […] Using one primer only produced no fragmentation but only linearization, confirming successful circularization. Using double primers produced fragments flanking the branched region, where branched topology was confirmed by gel shift. […] NLuc bioluminometry was measured 8 hrs post transfection and normalized Firefly luciferase as transfection control. Mean±s.e.m., n=3. P values were calculated by ordinary one-way ANOVA (alpha=0.05), with multiple comparisons to circ-NLuc with only 5-octadiynyl deoxyuridine (OU) handle (construct 45). ****P<0.0001, n.s. P>0.05. […] QRNA with m7G (construct 48) was compared. n=3, biological replicates. Mean±sem. P values were calculated by ordinary one-way ANOVA with multiple comparisons against construct 61 without any cotransfected capped oligos (Dunnett's multiple comparison test). […] P values were calculated by unpaired two-sided t-test.
HeLa cells [ATCC, CCL-2] were maintained in DMEM culture media [ThermoFisher Scientific, 119951] containing 10% FBS and 1% penicillin-streptomycin [ThermoFisher Scientific, 15070063] in a 37° C. incubator with 5% CO2 and passaged at a ratio of 1:10 every 3 days. […] Cells were lysed and luciferase activity was measured using the Promega Dual Glo Luciferase Assay System [Promega, E2920]. Firefly luminescence/Renilla luminescence for each well was used as mRNA activity readout. […]

[3] = In vivo imaging of NanoLuc after retro-orbital mRNA-LNP injection; conditions: mice; for NLuc translation of QRNA relative to uncapped m1ψ-circRNA precursor (circRNA-OU): LNP retro-orbital
Experimental: All animal procedures followed animal care guidelines approved by the Institutional Animal Care and Use Committee (IACUC) of the Broad Institute of MIT and Harvard under animal protocol #0255-08-19. Animal experiments were conducted in compliance with IACUC policies and NIH guidelines. The BALB/cj (male, 6~8 weeks old) mice used for in vivo NanoLuc assay in this study were purchased from The Jackson Laboratory (JAX). The C57BL/6 mice (female, 7 weeks old), used for hEPO assay in this study were purchased from The Jackson Laboratory (JAX).
mRNA diluted in 50 mM citrate buffer (pH 4) and lipid mix (37.5 mM in ethanol) containing 50 mol % SM-102, 10 mol % DSPC, 38.5 mol % Cholesterol, and 1.5 mol % DMG-PEG2000 were assembled into LNP using a NanoAssemblr Spark instrument [Precision Nanosystems]. Upon formulation, mRNA-LNPs were diluted in 12 mL 1×PBS solution and the buffer was exchanged by concentrating with a 30 kDa spin filter [MilliporeSigma, UFC901008] to remove residue ethanol. Concentrations and encapsulation efficiency of mRNA were determined using Quant-it RiboGreen RNA Assay Kit [ThermoFisher, R11490]. 1 μg NanoLuc or hEPO mRNA-LNP in a total volume of 100 μL was injected through retro orbital injection into each mouse. Four mice were used for each condition of each experiment (NanoLuc imaging, hEPO ELISA, and reticulocyte counting). For NanoLuc imaging, PBS injection was used as negative control. For hEPO/reticulocyte experiments, poly(C)-LNP complex was used as negative control.
In vivo activity of NanoLuc was measured using a Competent IVIS-Perkin Elmer IVIS Spectrum CT System [Perkin Elmer]. At each time point, mice were anesthetized with isoflurane. The fluorofurimazine substrate with poloxamer-407 [Promega, CS320501] was freshly reconstituted in PBS to a final concentration of ~5.1 mM and injected intraperitoneally (i.p.) into the mice at a dose of ~22 nmol per gram body weight. Mice were imaged 5 mins post injection using auto exposure settings. The luminescent activity was quantified using Aura 4.0 imaging software. The background was determined by including mice injected with poly C-LNP negative control and subtracted from each measurement.

HeLa cells [4] = test: Two-ORF FLuc/3xHiBiT reporter bioluminometry; type: cell-based; conditions: 8 hrs post transfection
Experimental: as §1
Finally, Applicant evaluated if the branched cap on the QRNA has the ability to initiate translation of open reading frames (ORFs) upstream of it. […] FLuc and HiBiT bioluminometry were evaluated 8 hrs post transfection.
Lastly, to test whether the branched cap could drive the translation for upstream AUG via either proximity looping or bidirectional ribosome scanning to opt for upstream open reading frames (ORFs), Applicant generated a two-ORF reporter mRNA that contained a 5′ full-length FLuc ORF and a 3′ 3×HiBIT ORF with an out-of-frame start codon from the FLuc ORF (construct 62). […]

eIF4E = eIF4E (UniProt P06730 P06730:1-217); test: EMSA; 50 mM KCl, 10 mM Tris-HCl pH 7.6, 1 mM DTT, 4 C; conditions: tags: His tag, Cayman Chemical 25150
Chain of eIF4E (P06730 whole entry, one chain of several): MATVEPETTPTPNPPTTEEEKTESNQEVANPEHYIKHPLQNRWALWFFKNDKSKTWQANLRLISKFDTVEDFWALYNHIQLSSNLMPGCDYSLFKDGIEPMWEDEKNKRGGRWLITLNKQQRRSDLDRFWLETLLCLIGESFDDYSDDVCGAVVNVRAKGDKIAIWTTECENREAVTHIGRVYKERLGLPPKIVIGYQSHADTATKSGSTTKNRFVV
Experimental: Capped oligonucleotides were labeled on the 3′ end using AF647 labeled cytidine-5′-phosphate-3′-(6-aminohexyl) phosphate [Jena Bioscience, NU-1706-AF647] and T4 RNA ligase ligated AF647-labeled cytidine onto the capped oligos using manufacturer's protocols. Oligos were then incubated in the binding buffer (1 mM DTT, 50 mM KCl, 10 mM Tris-HCl (pH 7.6), Novex Hi-Density TBE Sample Buffer [Invitrogen, LC6678]) with varying eIF4E-His [Cayman Chemical Inc, 25150] concentrations prepared by sequential dilutions from the stock solution. The oligos and […] were incubated at 4° C. for 30 mins and characterized by EMSA with Novex TBE Gels, 4-20% [Invitrogen, EC6225BOX] at 4° C. AF647 labeled oligos were imaged with BioRad ChemiDoc MP Imaging System [12003154] and band intensities were quantified using ImageJ. For Kd calculation, the proportions of bound were plotted against eIF4E concentration using GraphPad Prism (Specific binding with Hill slope).
To gain insights into the mechanism of how the topologically branched internal cap initiates mRNA translation, Applicant used fluorophore-labeled mono- or dual-capped oligonucleotides and measured their affinity to eIF4E through EMSA.

O=C(O)C(Cc1ccccc1[N+](=O)[O-])=NNc1nc(-c2ccc(Cl)c(Cl)c2)cs1 (mixture of isomers) [4EGI-1]
Translation of mono- and dual-capped mRNA in RRL ([1]; 600 μM 4EGI-1 coupled with reduction of RRL % to 30%): almost completely halted translation
Translation of mono- and dual-capped mRNA in RRL in presence of 4EGI-1 ([1]; 4EGI-1 600 μM or DMSO): inhibited translation of dual-capped mRNA; also recorded: significantly reduced

construct 49: m1ψ NLuc QRNA with LNAm7G branched cap (SEQ ID NO: 115) ({P}-rArArArArArArAd[5OctU]rArArArArArA-{3P}; ligated into m1Ψ circRNA, LNA-m7G-capped LNA/2'-OMe branch oligo clicked at octadiynyl-dU)
NLuc protein production increase of modified circRNA/QRNA (HeLa cells [2]; HeLa cells, 8 hrs post transfection, compared to circ-NLuc with only OU handle (construct 45)): up to 144 fold
NLuc translation of QRNA relative to uncapped m1ψ-circRNA precursor (circRNA-OU) ([3]; 8 hrs): 17 ×
NLuc translation of QRNA relative to uncapped m1ψ-circRNA precursor (circRNA-OU) ([3]; 24 hrs): 30 ×
NLuc translation of QRNA relative to uncapped m1ψ-circRNA precursor (circRNA-OU) ([3]; 48 hrs): 59 ×
Time of peak NLuc bioluminescence / translation in vivo ([3]; LNP, retro-orbital injection): 24 h

construct 64: two-ORF FLuc-3×HiBiT QRNA with LNAm7G branched cap (SEQ ID NO: 119) ({P}-rArArArArArArAd[5OctU]rArArArArArA-{3P}; ligated into circRNA, LNA-m7G-capped LNA/2'-OMe branch oligo clicked at octadiynyl-dU, further chemistry not fully specified)
FLuc ORF expression, QRNA vs circRNA (uncapped control) (HeLa cells [4]): 166 fold
HiBiT ORF expression, QRNA vs circRNA (uncapped control) (HeLa cells [4]): 18.7 fold
Translation of upstream HiBiT and downstream FLuc ORFs, result in words (HeLa cells [4]): both the HiBiT and FLuc ORFs were enhanced

B1: construct S19: Bn7G-capped Nluc QRNA with globin UTRs, TGT/preQ1-azide labeled, uridine-containing (SEQ ID NO: 133) (nucleic acid)
chain: UAGUCUCGAGCUGGUACUGCAUGCACGCAAUGCUAGCUGCCCCUUUCCCGUCCUGGGUACCCCGAGUCUCCCCCGACCUCGGGUCCCAGGUAUGCUCCCACCUCCACCUGCCCCACUCACCACCUCUGCUAGUUCCAGACACCUCCCAAGCACGCAGCAAUGCAGCUCAAAACGCUUAGCCUAGCCACACCCCCACGGGAAACAGCAGUGAUUAACCUUUAGCAAUAAACGAAAGUUUAACUAAGCUAUACUAACCCCAGGGUUGGUCAAUUUCGUGCCAGCCACACCCUGGAGCUAGCAAAAAAAAAAAAAAAAAAAAAAAAAAAAAAAAAAAAAAACUCAGUAGAUGUUUUCUUGGGUUAAUUGAGGCCUGAGUAUAAGGUGACUUAUACUUGUAAUCUAUCUAAACGGGGAACCUCUCUAGUAGACAAUCCCGUGCUAAAUUGUAGGACUGCCCUUUAAUAAAUACUUCUAUAUUUAAAGAGGUAUUUAUGAAAAGCGGAAUUUAUCAGAUUAAAAAUACUUUCUCUAGAGUCGACCUGCAG
modifications: Bn7G cap; TGT/preQ1-azide label
Nluc translation of QRNA vs circRNA, result in words (HeLa cells [2]; circRNA with and without IRES, uridine-containing): translated much more efficiently than its circRNA counterpart

B2: 1xm7G-OU (28) (ssRNA)
RNA: AGAUAAAUAAAAAA
modifications: 5' m7G cap; 5-octadiynyl-dU at position 8
Kd (eIF4E; label: 3' AF647-cytidine): 2.21 µM

B3: 2xLNAm7G dual-capped branched (42) (ssRNA)
RNA 1: AGAUAAAUAAAAAA
RNA 2: AGAGAUAA
modifications: LNA-m7G cap on both 5' ends; second strand 3'-azide clicked to 5-octadiynyl-dU at position 8 of first strand
Kd (eIF4E; label: AF647-cytidine, branched): 1.28 µM
